Test results as given in patent US12171728B2, “Mixture of resveratrol supported on metal hydroxide and non-supported pure resveratrol for treating female fertility” (priority 2018, dated 2024).

Columns and labels:
[1] = Pharmacokinetics in humans of resveratrol formulations (plasma profile of total resveratrol); format: in vivo, human; conditions: voluntary subjects, 180 mg
Protocol: FIG. 1. Plasma profile of total resveratrol (free resveratrol+its metabolites) following the administration to voluntary subjects of a single dose of resveratrol of 180 mg […]® (circles), from pure resveratrol not supported (squares) and a simulation of the combination of resveratrol from […]® and pure resveratrol not supported in the ratio 1:2 (triangles).
The pharmacokinetics in humans of different types of resveratrol formulations. The administration of 180 mg Resveratrol supported on magnesium hydroxide ([…]®) in voluntary subjects leads to a transient increase in total concentration (free resveratrol+resveratrol metabolites) plasmatic resveratrol with Time at the peak concentration of 30 minutes from administration, followed by a decay of about 40% in the period up to 180 minutes from administration.

female fertility = test: Case reports of fertility enhancement in infertile/sub-fertile women; format: in vivo, human
Source text: A person is […] and is classified as infertile since has tried to conceive for more than 12 months without the initiation of a state of pregnancy. They are not affected by polycystic ovary syndrome according to the Rotterdam criteria.
The patient, a person classified as being sub-fertile because they have been trying to conceive for more than 12 months unsuccessfully. They are not affected by metabolic disorders such as polycystic ovary syndrome according to the Rotterdam criteria.
A person is […] and is classified as a sub-fertile because they have been trying to conceive for more than 12 months without starting a state of pregnancy. It is not affected by metabolic disorders such as polycystic ovary syndrome according to the Rotterdam criteria.

Total plasma concentration of resveratrol compared with REVIFAST [1]: absolute lesser value
Compound: Oc1ccc(C=Cc2cc(O)cc(O)c2)cc1 [pure resveratrol, resveratrol]
Pregnancy outcome (female fertility; case n1, infertile, 100 mg per day for 3 months): without having a pregnancy
Pregnancy outcome (female fertility; case n1, dosage doubled to 200 mg): has not changed its situation
